Results reported in PubChem BioAssay AID248 (DTP/NCI, 2004).
Several values for one entry are separate records, joined by “and”; a condition that tells them apart may be missing. Equal values may be shown once. Inconclusive results and toxic doses are left out. No stated cut-off is given here; in the data, active means T/C of 150% or more; inactive means T/C below 125%.

Test system: L1210 leukemia ip in BDF1 mice, survival T/C
Assay: NCI In Vivo Anticancer Drug Screen. Data for tumor model L1210 Leukemia (intraperitoneal) in B6D2F1 (BDF1) mice
Settings: endpoint: mean survival time, higher = longer survival
In short: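 Transplantable tumor model; survival measured in treated vs vehicle control mice. Value = treated/control.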

[1] = dose: 25.0 mg/kg/injection, schedule: Q01DX009 (ip), vehicle: saline
[2] = dose: 50.0 mg/kg/injection, schedule: Q01DX009 (ip), vehicle: saline
[3] = dose: 100.0 mg/kg/injection, schedule: Q01DX009 (ip), vehicle: saline
[4] = dose: 100.0 mg/kg/injection, schedule: Q01DX009 (ip), vehicle: Klucel (hydroxypropylcellulose) (HPC)
[5] = dose: 100.0 mg/kg/injection, schedule: Q04DX003 (ip), vehicle: Klucel (hydroxypropylcellulose) (HPC)
[6] = dose: 200.0 mg/kg/injection, schedule: Q01DX009 (ip), vehicle: Klucel (hydroxypropylcellulose) (HPC)
[7] = dose: 200.0 mg/kg/injection, schedule: Q04DX003 (ip), vehicle: Klucel (hydroxypropylcellulose) (HPC)
[8] = dose: 400.0 mg/kg/injection, schedule: Q01DX009 (ip), vehicle: Klucel (hydroxypropylcellulose) (HPC)
[9] = dose: 400.0 mg/kg/injection, schedule: Q04DX003 (ip), vehicle: Klucel (hydroxypropylcellulose) (HPC)
[10] = dose: 100.0 mg/kg/injection, schedule: Q04DX003 (ip), vehicle: saline
[11] = dose: 200.0 mg/kg/injection, schedule: Q04DX003 (ip), vehicle: saline
[12] = dose: 400.0 mg/kg/injection, schedule: Q04DX003 (ip), vehicle: saline
[13] = dose: 100.0 mg/kg/injection, schedule: Q04DX002 (ip), vehicle: Klucel (hydroxypropylcellulose) (HPC)
[14] = dose: 200.0 mg/kg/injection, schedule: Q04DX002 (ip), vehicle: Klucel (hydroxypropylcellulose) (HPC)
[15] = dose: 100.0 mg/kg/injection, schedule: Q01DX001 (ip), vehicle: saline
[16] = dose: 200.0 mg/kg/injection, schedule: Q01DX001 (ip), vehicle: saline
[17] = dose: 400.0 mg/kg/injection, schedule: Q01DX001 (ip), vehicle: saline
[18] = dose: 100.0 mg/kg/injection, schedule: Q01DX001 (ip), vehicle: carboxymethylcellulose (CMC)
[19] = dose: 200.0 mg/kg/injection, schedule: Q01DX001 (ip), vehicle: carboxymethylcellulose (CMC)
[20] = dose: 400.0 mg/kg/injection, schedule: Q01DX001 (ip), vehicle: carboxymethylcellulose (CMC)

Measured: T/C

C/C(=C\CN1C(=O)c2ccccc2C1=O)CCC(=O)O
inactive: [1] 109 % of control | [2] 101 % of control | [3] 109 % of control | dose: 200.0 mg/kg/injection, schedule: Q01DX009 (ip), vehicle: saline 111 % of control | dose: 400.0 mg/kg/injection, schedule: Q01DX009 (ip), vehicle: saline 106 % of control

CCC/C(=C\C(=O)O)CC
inactive: [4] 94 % of control | [5] 93 % of control | [6] 96 % of control | [7] 90 % of control | [8] 96 % of control | [9] 98 % of control

IC1CCC2OC1CCC2I (configuration not stated)
inactive: dose: 100.0 mg/kg/injection, schedule: Q04DX002 (ip), vehicle: saline with Tween-80 94 % of control | dose: 200.0 mg/kg/injection, schedule: Q04DX002 (ip), vehicle: saline with Tween-80 94 % of control | dose: 400.0 mg/kg/injection, schedule: Q04DX002 (ip), vehicle: saline with Tween-80 109 % of control

Clc1cc(Cl)cc(N=Nc2ccccc2)c1
inactive: [5] 102 % of control | [7] 103 % of control | [9] 103 % of control

O=C(OCCNC(=O)N1CCOCC1)OCCNC(=O)N1CCOCC1
inactive: [10] 100 % of control | [11] 100 % of control | [12] 106 % of control

N#Cc1ccc(Cl)cc1
inactive: [13] 100 % of control | [14] 102 % of control

CCOc1ccc(NC(=O)OCCN2CCN(CCc3ccccc3)C(C)C2)cc1 (configuration not stated)
inactive: [15] 98 % of control | [16] 95 % of control

CCOC(=O)/C=C(\C)C(C)(C)C(C)=O
inactive: [15] 90 % of control | [16] 101 % of control | [17] 98 % of control

Cc1nc(SCc2ccc(Cl)cc2)[nH]c(=O)c1CC(C)O (configuration not stated)
inactive: [10] 97 % of control | [11] 89 % of control | [12] 89 % of control

COC(=O)c1nc[nH]c1C(=O)OC
inactive: [10] 112 % of control | [11] 93 % of control | [12] 109 % of control

O=C1c2ccccc2S(=O)N1OCc1ccccc1 (configuration not stated)
inactive: [13] 88 % of control | [14] 100 % of control

CCNC(Cc1ccccc1)C1CCCO1 (configuration not stated)
inactive: dose: 6.25 mg/kg/injection, schedule: Q01DX009 (ip), vehicle: saline 108 % of control | dose: 12.5 mg/kg/injection, schedule: Q01DX009 (ip), vehicle: saline 94 % of control | [1] 96 % of control | dose: 25.0 mg/kg/injection, schedule: Q04DX003 (ip), vehicle: saline 98 % of control | [2] 113 % of control | dose: 50.0 mg/kg/injection, schedule: Q04DX003 (ip), vehicle: saline 101 % of control | [3] 92 % of control | [10] 104 % of control

CC(=O)OC1CC(n2cc(C)c(=O)[nH]c2=O)OC1COC(c1ccccc1)(c1ccccc1)c1ccccc1 (configuration not stated)
inactive: dose: 100.0 mg/kg/injection, schedule: Q01DX005 (ip), vehicle: saline 109 % of control | dose: 200.0 mg/kg/injection, schedule: Q01DX005 (ip), vehicle: saline 98 % of control

CCCCOC(=O)Nc1ccccc1
inactive: dose: 100.0 mg/kg/injection, schedule: Q04DX003 (ip), vehicle: gum acacia 101 % of control | dose: 200.0 mg/kg/injection, schedule: Q04DX003 (ip), vehicle: gum acacia 108 % of control | dose: 400.0 mg/kg/injection, schedule: Q04DX003 (ip), vehicle: gum acacia 109 % of control

CCOC1(OCC)CC2(Cl)C(Cl)=C(Cl)C(Cl)(C3C1CC3(OCC)OCC)C2(OC)OC (configuration not stated)
inactive: dose: 75.0 mg/kg/injection, schedule: Q01DX009 (ip), vehicle: Klucel (hydroxypropylcellulose) (HPC) 103 % of control | dose: 100.0 mg/kg/injection, schedule: Q01DX001 (ip), vehicle: Klucel (hydroxypropylcellulose) (HPC) 95 % of control | dose: 150.0 mg/kg/injection, schedule: Q01DX009 (ip), vehicle: Klucel (hydroxypropylcellulose) (HPC) 107 % of control | dose: 200.0 mg/kg/injection, schedule: Q01DX001 (ip), vehicle: Klucel (hydroxypropylcellulose) (HPC) 103 % of control | dose: 300.0 mg/kg/injection, schedule: Q01DX009 (ip), vehicle: Klucel (hydroxypropylcellulose) (HPC) 100 % of control | dose: 400.0 mg/kg/injection, schedule: Q01DX001 (ip), vehicle: Klucel (hydroxypropylcellulose) (HPC) 97 % of control

O=C(O)CCCCOc1ccccc1
inactive: dose: 75.0 mg/kg/injection, schedule: Q04DX003 (ip), vehicle: saline 97 % of control | dose: 150.0 mg/kg/injection, schedule: Q04DX003 (ip), vehicle: saline 103 % of control

Cc1ccc(S(=O)(=O)N(C)c2ccc(I)c(Cl)c2Cl)cc1
inactive: [5] 102 % of control | [7] 96 % of control | [9] 98 % of control

COC(=O)c1ccc(O)c(Cl)c1
inactive: [18] 96 % of control | dose: 100.0 mg/kg/injection, schedule: Q01DX009 (ip), vehicle: carboxymethylcellulose (CMC) 96 % of control | dose: 100.0 mg/kg/injection, schedule: Q04DX002 (ip), vehicle: carboxymethylcellulose (CMC) 103 % of control and 90 % of control | dose: 100.0 mg/kg/injection, schedule: Q04DX003 (ip), vehicle: carboxymethylcellulose (CMC) 97 % of control and 105 % of control | [19] 97 % of control | dose: 200.0 mg/kg/injection, schedule: Q01DX009 (ip), vehicle: carboxymethylcellulose (CMC) 92 % of control | dose: 200.0 mg/kg/injection, schedule: Q04DX002 (ip), vehicle: carboxymethylcellulose (CMC) 105 % of control and 90 % of control | dose: 200.0 mg/kg/injection, schedule: Q04DX003 (ip), vehicle: carboxymethylcellulose (CMC) 100 % of control and 91 % of control | [20] 91 % of control | dose: 400.0 mg/kg/injection, schedule: Q01DX009 (ip), vehicle: carboxymethylcellulose (CMC) 96 % of control | dose: 400.0 mg/kg/injection, schedule: Q04DX002 (ip), vehicle: carboxymethylcellulose (CMC) 97 % of control | dose: 400.0 mg/kg/injection, schedule: Q04DX003 (ip), vehicle: carboxymethylcellulose (CMC) 102 % of control and 103 % of control

C=CCNC(=S)Nc1cccc([N+](=O)[O-])c1
inactive: dose: 50.0 mg/kg/injection, schedule: Q01DX001 (ip), vehicle: carboxymethylcellulose (CMC) 111 % of control | [18] 94 % of control | [19] 94 % of control | [20] 100 % of control

COc1ccccc1/C=C1\SC(=O)N(CCNC(C)=O)C1=O
inactive: [15] 98 % of control | [16] 100 % of control | [17] 96 % of control

CC(=O)OC(C)c1ccccc1 (configuration not stated)
inactive: [4] 112 % of control | [6] 106 % of control | [8] 101 % of control

CCCCCCCCCCCCCCCC(=O)Oc1ccc(C(=S)N2CCOCC2)cc1
inactive: [5] 103 % of control | [7] 99 % of control | [9] 99 % of control

O=c1c2ccccc2[nH]c2c([N+](=O)[O-])cccc12
inactive: dose: 100.0 mg/kg/injection, schedule: Q01DX009 (ip), vehicle: saline with Tween-80 100 % of control | dose: 200.0 mg/kg/injection, schedule: Q01DX009 (ip), vehicle: saline with Tween-80 99 % of control | dose: 400.0 mg/kg/injection, schedule: Q01DX009 (ip), vehicle: saline with Tween-80 87 % of control
